Laboratory results reported in patent US12667574B2, “Paraxanthine-based bioactive composition and method of use thereof” (PX ING, LLC, priority 2021, dated 2026).

Assays:
[1] = test system: male Swiss Albino Wistar rats; assay: Walter Morris Maze test (Example 3); format: in vivo; conditions: oral 14 days
Description: Distilled water was provided ad libitum. […] Ltd (Bangalore, India). […] The last dose on day 14 was given 1 hour prior to testing. The Walter Morris Maze test consisted of a circular pool in a room with geometric shapes on the wall serving as spatial cues. The pool, which is 70 cm in diameter and painted with black color, filled with 13 cm depth of 25±1° C. water. A platform (6 cm diameter) was placed into one quadrant of the pool and submerged 1 cm below the water surface. For the training, all rats were trained to locate the submerged platform in constant location. The training day consisted of four trials. […] The rat was allowed to remain on the platform for 15 seconds before being dried off and later was transferred to a holding cage.

acetylcholine (Ach) [2] = assay: Acetylcholine concentration (Example 3); format: in vivo, rats; conditions: oral 14 days
Description: (§1) Distilled water was provided ad libitum. […] Ltd (Bangalore, India).
(§2) 0.5% Carboxy Methyl Cellulose sodium was used as vehicle and the test item formulations were prepared daily. […] The last dose on day 14 was given 1 hour prior to testing.

dopamine (dopa) [3] = assay: Dopamine concentration (Example 3); format: in vivo, rats; conditions: oral 14 days
Description: as §1, §2

glutathione (GSH) [4] = assay: Glutathione level (Example 3); format: in vivo, rats; conditions: oral 14 days
Description: as §1, §2

[5] = test system: brain derived neuro factor, BDNF; assay: BDNF level, neuroplasticity (Example 3); format: in vivo, rats; conditions: oral 14 days
Description: as §1, §2

male Swiss Albino mice = assay: Treadmill endurance test (first Example 4, L-Theanine); format: in vivo; conditions: oral once daily 28 days, HED 50 mg paraxanthine, 25 mg L-Theanine
Description: as §1
(§3) The following HED were used in this study: 50 mg paraxanthine, (ENFINITY™ Ingenious Ingredients, L.P Lewisville, TX, USA; mouse dose: 10.275 mg/kg bw/day); 25 mg L-Theanine (mouse dose: 5.137 mg/kg bw), and 50 mg paraxanthine plus 25 mg L-Theanine. 0.5% Carboxy Methyl Cellulose sodium was used as vehicle and the test item formulations were prepared daily.
During the treatment period, exercise training was completed using a motorized treadmill (Exer 3/6, Columbus Instruments international, OH, USA) at a moderate intensity of 20 cm/sec as maximal running speed, an incline of ten degrees and a shock intensity of 0.2 mA, for ten minutes. The speed of the treadmill was manually adjusted by increasing the belt speed by 5 cm/sec every two minutes throughout the total duration of ten minutes. All animals were adapted to this procedure daily 60 minutes after dosing for five days in a week during the treatment period. 1.3. Treadmill Endurance Test
Muscle endurance was accomplished on a motorized treadmill at a low to moderate intensity of 5-50 cm/sec as maximal running speed, an incline of ten degrees and a shock intensity of 0.2 mA, with the belt speed being increased by 5 cm/sec every two minutes until it reaches 50 cm/sec. Animals were subjected to the treadmill test until exhaustion.

[6] = test system: male Swiss Albino Wistar rats; assay: Walter Morris Maze test (second Example 4, L-Theanine); format: in vivo; conditions: oral 14 days
Description: as §1
as §3, with “(ENFINITY™,” for “(ENFINITY™”, “rat” for “mouse”, “5.141” for “10.275”, “(rat” for “(mouse”, “2.570” for “5.137”, “daily. […] The last dose on day 14 was given 1 hour prior to testing.” for “daily.”
The Walter Morris Maze test consisted of a circular pool in a room with geometric shapes on the wall serving as spatial cues. The pool, which is 70 cm in diameter and painted with black color, filled with 13 cm depth of 25±1° C. water. A platform (6 cm diameter) was placed into one quadrant of the pool and submerged 1 cm below the water surface. For the training, all rats were trained to locate the submerged platform in a constant location. The training day consisted of four trials. During training, a rat started at one of four starting points and allowed to swim until it located the platform or until 60 seconds had elapsed. The rat was allowed to remain on the platform for 15 seconds before being dried off and later was transferred to a holding cage. […] The animals were continuously trained 4 times at 4 starting points continued daily for 4 days, the main trial was conducted on the 15th & 16th day and the latency of escaping onto the platform was recorded.

[7] = test system: brain derived neuro factor, BDNF; assay: BDNF level, neuroplasticity (second Example 4); format: in vivo, rats; conditions: oral 14 days
Description: as §1
as §3, with “(ENFINITY™,” for “(ENFINITY™”, “rat” for “mouse”, “5.141” for “10.275”, “(rat” for “(mouse”, “2.570” for “5.137”, “daily. […] The last dose on day 14 was given 1 hour prior to testing.” for “daily.”

acetylcholine (Ach) [8] = assay: Acetylcholine concentration (second Example 4); format: in vivo, rats; conditions: oral 14 days
Description: as §1
as §3, with “(ENFINITY™,” for “(ENFINITY™”, “rat” for “mouse”, “5.141” for “10.275”, “(rat” for “(mouse”, “2.570” for “5.137”, “daily. […] The last dose on day 14 was given 1 hour prior to testing.” for “daily.”

dopamine (dopa) [9] = assay: Dopamine concentration (second Example 4); format: in vivo, rats; conditions: oral 14 days
Description: as §1
as §3, with “(ENFINITY™,” for “(ENFINITY™”, “rat” for “mouse”, “5.141” for “10.275”, “(rat” for “(mouse”, “2.570” for “5.137”, “daily. […] The last dose on day 14 was given 1 hour prior to testing.” for “daily.”

glutathione (GSH) [10] = assay: Glutathione level (second Example 4); format: in vivo, rats; conditions: oral 14 days
Description: as §1
as §3, with “(ENFINITY™,” for “(ENFINITY™”, “rat” for “mouse”, “5.141” for “10.275”, “(rat” for “(mouse”, “2.570” for “5.137”, “daily. […] The last dose on day 14 was given 1 hour prior to testing.” for “daily.”

With Cn1c(=O)c2[nH]cnc2n(C)c1=O [theophylline, reference compound] the escape latency ([1]; old rats (16-month-old)) was 43.83 ± 1.47 s, the escape latency ([1]; young rats (8-week-old)) was 38.00 ± 1.90 s and the “acetylcholine (Ach) concentration” value (acetylcholine (Ach) [2]; old rats) was 55.33±1.05 U/mL. For the same compound, the “acetylcholine (Ach) concentration” value (acetylcholine (Ach) [2]; young rats) was 63.89±1.64 U/mL, the “dopamine (dopa) concentration” value (dopamine (dopa) [3]; old rats) was 495.82 ± 10.86 ng/L and the “dopamine (dopa) concentration” value (dopamine (dopa) [3]; young rats) was 543.78 ± 6.11 ng/L. For the same compound, the “glutathione (GSH) level” value (glutathione (GSH) [4]; old rats) was 24.23 ± 0.63 µg/mL and the “glutathione (GSH) level” value (glutathione (GSH) [4]; young rats) was 29.78 ± 1.07 µg/mL.

In the case of C[N+](C)(C)CCOP(=O)([O-])OC[C@H](O)CO [alpha-GPC, L-Alpha glycerylphosphorylcholine, reference compound], the escape latency ([1]; old rats (16-month-old)) is reported as 39.83 ± 0.98 s, the escape latency ([1]; young rats (8-week-old)) is reported as 34.83 ± 1.33 s and the BDNF ([5]; old rats) is reported as 881.70 ± 10.41 µg/mL. The BDNF ([5]; young rats) was 881.70 ± 10.41 µg/mL, the “acetylcholine (Ach) concentration” value (acetylcholine (Ach) [2]; old rats) was 56.89±1.76 U/mL and the “acetylcholine (Ach) concentration” value (acetylcholine (Ach) [2]; young rats) was 65.89±1.64 U/mL. For the same compound, the “dopamine (dopa) concentration” value (dopamine (dopa) [3]; old rats) was 506.35 ± 2.82 ng/L, the “dopamine (dopa) concentration” value (dopamine (dopa) [3]; young rats) was 563.55 ± 7.98 ng/L and the “glutathione (GSH) level” value (glutathione (GSH) [4]; old rats) was 24.72 ± 0.48 µg/mL. The “glutathione (GSH) level” value (glutathione (GSH) [4]; young rats) was 31.72 ± 0.53 µg/mL.

For CCNC(=O)CC[C@H](N)C(=O)O [L-Theanine, N5-ethyl-L-glutamine, reference compound], the “distance travelled during treadmill exercise” value (male Swiss Albino mice) was 295.17±6.11 m, the escape latency ([6]; old rats (16-month-old)) was 44.67 ± 2.16 s and the escape latency ([6]; young rats (8-week-old)) was 38.33 ± 2.07 s. The BDNF ([7]; old rats) was 789.1 ± 2.03 pg/mL, the BDNF ([7]; young rats) was 866 ± 8.66 pg/mL and the “acetylcholine (Ach) concentration” value (acetylcholine (Ach) [8]; old rats) was 55.89±1.05 U/mL. The “acetylcholine (Ach) concentration” value (acetylcholine (Ach) [8]; young rats) was 62.83±0.91 U/mL, the “dopamine (dopa) concentration” value (dopamine (dopa) [9]; old rats) was 473.03 ± 6.05 ng/L and the “dopamine (dopa) concentration” value (dopamine (dopa) [9]; young rats) was 528.18 ± 4.09 ng/L. The “glutathione (GSH) level” value (glutathione (GSH) [10]; old rats) was 23.87 ± 0.45 µg/mL and the “glutathione (GSH) level” value (glutathione (GSH) [10]; young rats) was 31.72 ± 0.53 µg/mL.
